In PubChem BioAssay (NCI):
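Exposure lasted 48 hours, with cells grown in 96-well plates and compounds tested at five concentrations. GI50 is the concentration that inhibits growth by half. At the TGI there is no net growth.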

Experiments:
Assay in all cases: growth of human tumour cells (NCI), 48 h
[1] = tested on: 786-0 renal
[2] = tested on: A498 renal
[3] = tested on: A549 NSCLC
[4] = tested on: ACHN renal
[5] = tested on: BT-549 breast
[6] = tested on: CAKI-1 renal
[7] = tested on: CCRF-CEM leukemia
[8] = tested on: COLO 205 colon
[9] = tested on: DU-145 prostate
[10] = tested on: EKVX NSCLC
[11] = tested on: HCC-2998 colon
[12] = tested on: HCT-116 colon
[13] = tested on: HCT-15 colon
[14] = tested on: HL-60(TB) leukemia
[15] = tested on: HOP-62 NSCLC
[16] = tested on: HOP-92 NSCLC
[17] = tested on: HS 578T breast
[18] = tested on: HT29 colon
[19] = tested on: IGROV1 ovarian
[20] = tested on: K-562 leukemia
[21] = tested on: KM12 colon
[22] = tested on: LOX IMVI melanoma
[23] = tested on: M14 melanoma
[24] = tested on: MALME-3M melanoma
[25] = tested on: MCF7 breast
[26] = tested on: MDA-MB-231 breast
[27] = tested on: MDA-MB-435
[28] = tested on: MOLT-4 leukemia
[29] = tested on: NCI-H226 lung
[30] = tested on: NCI-H23 lung
[31] = tested on: NCI-H460 lung
[32] = tested on: NCI-H522 lung
[33] = tested on: NCI/ADR-RES ovarian
[34] = tested on: OVCAR-3 ovarian
[35] = tested on: OVCAR-4 ovarian
[36] = tested on: OVCAR-5 ovarian
[37] = tested on: OVCAR-8 ovarian
[38] = tested on: PC-3 prostate
[39] = tested on: RPMI-8226 leukemia
[40] = tested on: RXF 393 renal
[41] = tested on: SF-268 CNS
[42] = tested on: SF-295 CNS
[43] = tested on: SK-MEL-2 melanoma
[44] = tested on: SK-MEL-28 melanoma
[45] = tested on: SK-MEL-5 melanoma
[46] = tested on: SK-OV-3 ovarian
[47] = tested on: SN12C renal
[48] = tested on: SNB-19 CNS
[49] = tested on: SNB-75 CNS
[50] = tested on: SR leukemia
[51] = tested on: SW-620 colon
[52] = tested on: T-47D breast
[53] = tested on: TK-10 renal
[54] = tested on: U251 CNS
[55] = tested on: UACC-257 melanoma
[56] = tested on: UACC-62 melanoma
[57] = tested on: UO-31 renal

## Cc1ccc(/C=C2\COc3ccc(O)c(O)c3C2=O)cc1
[1]
  GI50: 555 nM
  TGI: 2490 nM
[2]
  GI50: 249 nM
  TGI: 1950 nM
[3]
  GI50: 2330 nM
  TGI: 11500 nM
[4]
  GI50: 639 nM
  TGI: 2000 nM
[5]
  GI50: 585 nM
  TGI: 2640 nM
[6]
  GI50: 765 nM
  TGI: 2200 nM
[7]
  GI50: 265 nM
  TGI: 1480 nM
[8]
  GI50: 2000 nM
  TGI: 3950 nM
[9]
  GI50: 394 nM
  TGI: 1710 nM
[10]
  GI50: 1280 nM
  TGI: 4140 nM
[11]
  GI50: 1690 nM
  TGI: 3280 nM
[12]
  GI50: 1280 nM
  TGI: 2930 nM
[13]
  GI50: 352 nM
  TGI: 6410 nM
[14]
  GI50: 421 nM
  TGI: 2140 nM
[15]
  GI50: 1440 nM
  TGI: 6640 nM
[16]
  GI50: 887 nM
  TGI: 5770 nM
[17]
  GI50: 362 nM
  TGI: > 26400 nM
[18]
  GI50: 2780 nM
  TGI: 9050 nM
[19]
  GI50: 559 nM
  TGI: 2620 nM
[20]
  GI50: 329 nM
  TGI: > 100000 nM
[21]
  GI50: 838 nM
  TGI: 3000 nM
[22]
  GI50: 329 nM
  TGI: 1340 nM
[23]
  GI50: 292 nM
  TGI: 1060 nM
[24]
  GI50: 909 nM
  TGI: 3150 nM
[25]
  GI50: 375 nM
  TGI: 9760 nM
[26]
  GI50: 340 nM
  TGI: 3780 nM
[27]
  GI50: 233 nM
  TGI: 764 nM
[28]
  GI50: 403 nM
  TGI: > 29600 nM
[29]
  GI50: 2130 nM
  TGI: 6240 nM
[30]
  GI50: 1450 nM
  TGI: 3800 nM
[31]
  GI50: 1840 nM
  TGI: 5000 nM
[32]
  GI50: 185 nM
  TGI: 461 nM
[33]
  GI50: 343 nM
  TGI: > 100000 nM
[34]
  GI50: 386 nM
  TGI: 1400 nM
[35]
  GI50: 1470 nM
  TGI: 4960 nM
[36]
  GI50: 1750 nM
  TGI: 3980 nM
[37]
  GI50: 404 nM
  TGI: > 100000 nM
[38]
  GI50: 505 nM
  TGI: 3740 nM
[39]
  GI50: 252 nM
  TGI: 818 nM
[40]
  GI50: 372 nM
  TGI: 1160 nM
[41]
  GI50: 1120 nM
  TGI: 3350 nM
[42]
  GI50: 2040 nM
  TGI: 9640 nM
[43]
  GI50: 555 nM
  TGI: 3650 nM
[44]
  GI50: 933 nM
  TGI: 2830 nM
[45]
  GI50: 320 nM
  TGI: 1260 nM
[46]
  GI50: 395 nM
  TGI: 35100 nM
[47]
  GI50: 370 nM
  TGI: 2330 nM
[48]
  GI50: 1320 nM
  TGI: 3270 nM
[49]
  GI50: 322 nM
  TGI: 3480 nM
[50]
  GI50: 358 nM
  TGI: > 100000 nM
[51]
  GI50: 854 nM
  TGI: 3110 nM
[52]
  GI50: 951 nM
  TGI: 6940 nM
[53]
  GI50: 1470 nM
  TGI: 3440 nM
[54]
  GI50: 922 nM
  TGI: 2290 nM
[55]
  GI50: 1550 nM
  TGI: 5380 nM
[56]
  GI50: 407 nM
  TGI: 1650 nM
[57]
  GI50: 465 nM
  TGI: 1800 nM
